{"source": "patent US10526327B2", "about": "“Histone demethylase inhibitors” (CELGENE QUANTICEL RESEARCH, INC., priority 2013, dated 2020)", "data": [{"target": "T1, JMJD2C (Homo sapiens, UniProt Q9H3R0)", "T1 construct": "purchased BPS Bioscience 50105", "T1 sequence (Q9H3R0 2-372)": "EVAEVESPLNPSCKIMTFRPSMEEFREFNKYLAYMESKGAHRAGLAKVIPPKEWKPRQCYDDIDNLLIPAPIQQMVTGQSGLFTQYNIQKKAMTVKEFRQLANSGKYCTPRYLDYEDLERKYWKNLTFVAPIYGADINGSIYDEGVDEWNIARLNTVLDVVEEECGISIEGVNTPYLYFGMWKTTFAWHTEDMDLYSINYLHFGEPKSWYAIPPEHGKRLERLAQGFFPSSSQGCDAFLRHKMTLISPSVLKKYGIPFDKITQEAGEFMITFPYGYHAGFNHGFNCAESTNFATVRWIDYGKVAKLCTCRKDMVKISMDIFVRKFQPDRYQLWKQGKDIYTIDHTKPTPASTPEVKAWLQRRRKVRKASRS", "test": "JMJD2C in vitro enzyme inhibition assay (TR-FRET)", "assay_type": "biochemical", "method_in_brief": "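Baculovirus-expressed human JMJD2C (AA 2-372) at 0.3 nM demethylated 300 nM biotin-H3K9me3 peptide with 2 μM alpha-ketoglutarate in HEPES pH 7.3 containing ascorbate and Fe(II), 30 min at room temperature. EDTA-stopped product was read by TR-FRET with Eu-anti-H3K9me2 and streptavidin-APC; 665/615 ratios from 11-point dilutions gave IC50.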", "units": {"IC50": "nM"}, "values": [{"smiles": "CC(C)Oc1nc(O)c2ccncc2n1", "note": "[Example 1, 2-propan-2-yloxy-3H-pyrido[3,4-d]pyrimidin-4-one]", "IC50": "100 to 1000"}, {"smiles": "CCOc1nc(O)c2ccncc2n1", "note": "[Example 2, 2-ethoxypyrido[3,4-d]pyrimidin-4-ol]", "IC50": "100 to 1000"}, {"smiles": "Oc1nc(OCCOCC(F)(F)F)nc2cnccc12", "note": "[Example 23, 2-[2-(2,2,2-trifluoroethoxy)ethoxy]pyrido[3,4-d]pyrimidin-4-ol]", "IC50": "100 to 1000"}, {"smiles": "CC(C)(O)CCOc1nc(O)c2ccncc2n1", "note": "[Example 24, 2-(3-hydroxy-3-methylbutoxy)pyrido[3,4-d]pyrimidin-4-ol]", "IC50": "100 to 1000"}, {"smiles": "CC(CO)COc1nc(O)c2ccncc2n1", "note": "(stereo not drawn) [Example 25, 2-(3-hydroxy-2-methylpropoxy)pyrido[3,4-d]pyrimidin-4-ol]", "IC50": "100 to 1000"}, {"smiles": "Oc1nc(OCC2CCCO2)nc2cnccc12", "note": "(stereo not drawn) [Example 26, 2-(oxolan-2-ylmethoxy)pyrido[3,4-d]pyrimidin-4-ol]", "IC50": "100 to 1000"}, {"smiles": "Oc1nc(OCC2CCOC2)nc2cnccc12", "note": "(stereo not drawn) [Example 27, 2-(oxolan-3-ylmethoxy)pyrido[3,4-d]pyrimidin-4-ol]", "IC50": "100 to 1000"}, {"smiles": "CC(=O)N(C)CCOc1nc(O)c2ccncc2n1", "note": "[Example 28, N-[2-(4-hydroxypyrido[3,4-d]pyrimidin-2-yl)oxyethyl]-N-methylacetamide]", "IC50": "100 to 1000"}, {"smiles": "CC(C)OCCOc1nc(O)c2ccncc2n1", "note": "[Example 29, 2-(2-propan-2-yloxyethoxy)pyrido[3,4-d]pyrimidin-4-ol]", "IC50": "100 to 1000"}, {"smiles": "Oc1nc(OCCOCc2ccccc2)nc2cnccc12", "note": "[Example 30, 2-(2-phenylmethoxyethoxy)pyrido[3,4-d]pyrimidin-4-ol]", "IC50": "100 to 1000"}, {"smiles": "O=C(NCCOc1nc(O)c2ccncc2n1)c1ccccc1", "note": "[Example 31, N-[2-(4-hydroxypyrido[3,4-d]pyrimidin-2-yl)oxyethyl]benzamide]", "IC50": "100 to 1000"}, {"smiles": "N#Cc1cccc(COc2nc(O)c3ccncc3n2)c1", "note": "[Example 32, 3-[(4-hydroxypyrido[3,4-d]pyrimidin-2-yl)oxymethyl]benzonitrile]", "IC50": "100 to 1000"}, {"smiles": "Cn1ccc(COc2nc(O)c3ccncc3n2)n1", "note": "[Example 33, 2-[(1-methylpyrazol-3-yl)methoxy]pyrido[3,4-d]pyrimidin-4-ol]", "IC50": "≤ 100"}, {"smiles": "Oc1nc(Oc2ccccc2)nc2cnccc12", "note": "[Example 34, 2-phenoxypyrido[3,4-d]pyrimidin-4-ol]", "IC50": "100 to 1000"}, {"smiles": "Oc1nc(OCc2ccccc2C(F)(F)F)nc2cnccc12", "note": "[Example 177, 2-{[2-(trifluoromethyl)phenyl]methoxy}pyrido[3,4-d]pyrimidin-4-ol]", "IC50": "≤ 100"}, {"smiles": "Oc1nc(OCc2ccccc2F)nc2cnccc12", "note": "[Example 178, 2-[(2-fluorophenyl)methoxy]pyrido[3,4-d]pyrimidin-4-ol]", "IC50": "≤ 100"}, {"smiles": "Oc1nc(OCc2cccc(F)c2)nc2cnccc12", "note": "[Example 179, 2-[(3-fluorophenyl)methoxy]pyrido[3,4-d]pyrimidin-4-ol]", "IC50": "≤ 100"}, {"smiles": "Oc1nc(OCc2ccc(F)cc2)nc2cnccc12", "note": "[Example 180, 2-[(4-fluorophenyl)methoxy]pyrido[3,4-d]pyrimidin-4-ol]", "IC50": "≤ 100"}, {"smiles": "Oc1nc(OCc2cccc(F)c2F)nc2cnccc12", "note": "[Example 181, 2-[(2,3-difluorophenyl)methoxy]pyrido[3,4-d]pyrimidin-4-ol]", "IC50": "≤ 100"}, {"smiles": "Oc1nc(OCc2cc(F)ccc2F)nc2cnccc12", "note": "[Example 182, 2-[(2,5-difluorophenyl)methoxy]pyrido[3,4-d]pyrimidin-4-ol]", "IC50": "≤ 100"}, {"smiles": "Oc1nc(OCc2c(F)cccc2F)nc2cnccc12", "note": "[Example 183, 2-[(2,6-difluorophenyl)methoxy]pyrido[3,4-d]pyrimidin-4-ol]", "IC50": "100 to 1000"}, {"smiles": "Oc1nc(OCc2cccc3ccccc23)nc2cnccc12", "note": "[Example 184, 2-(naphthalen-1-ylmethoxy)pyrido[3,4-d]pyrimidin-4-ol]", "IC50": "100 to 1000"}, {"smiles": "Oc1nc(OCc2ccccc2-c2ccccc2)nc2cnccc12", "note": "[Example 185, 2-[(2-phenylphenyl)methoxy]pyrido[3,4-d]pyrimidin-4-ol]", "IC50": "100 to 1000"}, {"smiles": "Oc1nc(OCc2cccc(-c3ccccc3)c2)nc2cnccc12", "note": "[Example 186, 2-[(3-phenylphenyl)methoxy]pyrido[3,4-d]pyrimidin-4-ol]", "IC50": "100 to 1000"}, {"smiles": "Oc1nc(OCc2ccc3ccccc3c2)nc2cnccc12", "note": "[Example 187, 2-(naphthalen-2-ylmethoxy)pyrido[3,4-d]pyrimidin-4-ol]", "IC50": "1000 to 10000"}, {"smiles": "Oc1nc(OCC2CCCc3ccccc32)nc2cnccc12", "note": "(stereo not drawn) [Example 188, 2-(1,2,3,4-tetrahydronaphthalen-1-ylmethoxy)pyrido[3,4-d]pyrimidin-4-ol]", "IC50": "≤ 100"}, {"smiles": "Oc1nc(OC2Cc3ccccc3C2)nc2cnccc12", "note": "[Example 189, 2-(2,3-dihydro-1H-inden-2-yloxy)pyrido[3,4-d]pyrimidin-4-ol]", "IC50": "≤ 100"}, {"smiles": "Oc1nc(OCC2CCc3ccccc32)nc2cnccc12", "note": "(stereo not drawn) [Example 190, 2-(2,3-dihydro-1H-inden-1-ylmethoxy)pyrido[3,4-d]pyrimidin-4-ol]", "IC50": "≤ 100"}, {"smiles": "Oc1nc(OCC2CCc3ccccc3C2)nc2cnccc12", "note": "(stereo not drawn) [Example 191, 2-(1,2,3,4-tetrahydronaphthalen-2-ylmethoxy)pyrido[3,4-d]pyrimidin-4-ol]", "IC50": "≤ 100"}, {"smiles": "Oc1nc(OC2CCc3ccccc32)nc2cnccc12", "note": "(stereo not drawn) [Example 192, 2-(2,3-dihydro-1H-inden-1-yloxy)pyrido[3,4-d]pyrimidin-4-ol]", "IC50": "1000 to 10000"}, {"smiles": "Oc1nc(OCc2coc3ccccc23)nc2cnccc12", "note": "[Example 193, 2-(1-benzofuran-3-ylmethoxy)pyrido[3,4-d]pyrimidin-4-ol]", "IC50": "≤ 100"}, {"smiles": "Oc1nc(OCC2COc3ccccc32)nc2cnccc12", "note": "(stereo not drawn) [Example 194, 2-(2,3-dihydro-1-benzofuran-3-ylmethoxy)pyrido[3,4-d]pyrimidin-4-ol]", "IC50": "1000 to 10000"}, {"smiles": "Oc1nc(OCC2CCOc3ccccc32)nc2cnccc12", "note": "(stereo not drawn) [Example 195, 2-(3,4-dihydro-2H-1-benzopyran-4-ylmethoxy)pyrido[3,4-d]pyrimidin-4-ol]", "IC50": "≤ 100"}, {"smiles": "Oc1nc(OC2CCCc3ccccc32)nc2cnccc12", "note": "(stereo not drawn) [Example 196, 2-(1,2,3,4-tetrahydronaphthalen-1-yloxy)pyrido[3,4-d]pyrimidin-4-ol]", "IC50": "1000 to 10000"}, {"smiles": "Oc1nc(OC2CCOc3ccccc32)nc2cnccc12", "note": "(stereo not drawn) [Example 197, 2-(3,4-dihydro-2H-1-benzopyran-4-yloxy)pyrido[3,4-d]pyrimidin-4-ol]", "IC50": "≤ 100"}, {"smiles": "Cn1cnc(-c2nccc3c(=O)[nH]cnc23)c1", "note": "[Example 198, 8-(1-methylimidazol-4-yl)-3H-pyrido[3,4-d]pyrimidin-4-one]", "IC50": "100 to 1000"}]}]}
